Reference: article PMC8348686, “The Pharmacological Profile of Second Generation Pyrovalerone Cathinones and Related Cathinone Derivative” (International Journal of Molecular Sciences, 2021)
Like-named read-outs stand apart in the source and are kept apart here.

Tests used:
[1] = molecular target: T1, h5-HT2A receptor (Homo sapiens, UniProt P28223); assay: Activation potency, FLIPR calcium assay in NIH-3T3 cells; assay type: cell-based; design: expressed in transfected cells
Description: Mouse embryonic fibroblasts (NIH-3T3) were transfected with the human 5-HT2A receptors, seed into 96-well plates coated with poly-D-lysine at a concentration of 70,000 cell per 0.1 mL and then incubated for 1 h at 37 °C in HEPES-Hank’s Balanced Salt Solution (HBSS) buffer (Gibco). Next, the plates were exposed to 100 μL/well of dye solution for 1 h at 37 °C inside the FLIPR (fluorescence imagining plate reader [FLIPR] calcium 5 assay kit; Molecular Devices, Sunnyvale, CA, USA). Then, the plates were exposed to the 25 μL/well of test drugs dissolved in HEPES–HBSS buffer and 250 mM probencid during online mode. The corresponding concentration vs. response curves were fitted using nonlinear regression and the EC50 values were calculated. The efficacy (maximal activity) was calculated relative to 5-HT activity, which was defined as 100%.

[2] = molecular target: T1, h5-HT2A receptor; assay: Radioligand binding, [3H]-ketanserin; design: expressed in transfected cells; host or cells: HEK293 cell preparations
Description: (§1) The radioligand binding assays for the human 5-HT1A, 5-HT2A, and 5-HT2C receptors were examined as previously described by. In summary, the human embryonic kidney 293 (HEK293) cell preparations were stably transfected with the human 5-HT1A, 5-HT2A or 5-HT2C receptors and then incubated with their respective radiolabelled ligands at a concentration equal to the dissociation constant, Kd. The following radioligands were used for the 5-HT1A, 5-HT2A, and 5-HT2C receptors, respectively; 0.90 nM [^3H]8-hydroxy-2-(dipropylamino) tetralin (8-OH-DPAT), 0.40 nM [^3H]ketanserin, and 1.4 nM [^3H]mesulgerine. The radioligand displacement for each examined drug was determined. Specific binding of the radioligand to the target was calculated by subtracting the nonspecific binding (in the presence of the receptor’s competitor in excess) from the total observed binding. The following radioligand competitors were used for the 5-HT1A, 5-HT2A, and 5-HT2C receptors, respectively; 10 μM pindolol (5-HT1A receptor), 10 μM spiperone (5-HT2A receptor), and 10 μM mianserin (5-HT2C receptor).

[3] = molecular target: T2, human dopamine (hDAT) uptake transporter (Homo sapiens, UniProt Q01959); assay: Monoamine uptake inhibition, dopamine uptake in transfected HEK293 cells; assay type: cell-based
T2 construct: expressed in transfected cells; host or cells: HEK293
Description: (§2) The monoamine uptake transporter inhibition was examined in accordance with previously described methods by for each substance of interest.
(§3) Human embryonic kidney 293 (HEK293) cells (Invitrogen, Zug, Switzerland) stably transfected with the human norepinephrine (hNET), dopamine (hDAT), or serotonin (hSERT) uptake transporters were briefly cultured in Dulbecco’s modified Eagle’s medium (DMEM; Gibco, Life Technologies, Zug, Switzerland) containing 10% fetal bovine serum and 250 μg/mL geneticin (Gibco, Life Technologies, Zug, Switzerland). Next, the cells were detached at a confluency of 70−90% and resuspended in Krebs–Ringer Bicarbonate Buffer (Sigma-Aldrich, Buchs, Switzerland) at a concentration of 3 × 10^6 cells per ml. The uptake buffer was additionally supplemented with 0.2 mg/mL of ascorbic acid (Sigma–Aldrich, Buchs, Switzerland) for the [^3H]-DA uptake experiments.
(§4) In summary, using round bottom 96-well plates, 100 μL of cell suspension was incubated in 25 μL of buffer containing test substances, vehicle control (0.7% dimethyl sulfoxide, DMSO), or 10 μM of the respective monoamine uptake inhibitor, mainly fluoxetine (SERT), nisoxetine (NET), or mazindol (DAT) for 10 min at room temperature while on a rotary shaker at 450 rpm (Thermomixer Comfort, Eppendorf, Hamburg, Germany). Thereafter, the monoamine uptake transporter was initiated by the addition of 50 μL of each respective radiolabelled neurotransmitter ([^3H]-5-HT, [^3H]-DA or [^3H]-NE) dissolved in the uptake buffer to a final concentration of 5 nM for an additional 10 min. Then, 100 μL of cell suspension mixture was transferred to microcentrifuge tubes containing 50 μL of 3 M potassium hydroxide (KOH, Sigma–Aldrich, Buchs, Switzerland) and 200 μL silicon oil (1:1 mixture of silicon oil type AR20 and AR200; Sigma–Aldrich, Buchs, Switzerland). Immediately after, the tubes were centrifugated (3 min, 13200 rpm) to terminate the uptake reaction by allowing the cells to move through the silicon oil into the KOH, which then lysed the cells. Quickly after, the tubes were immediately frozen with liquid nitrogen. Afterwards, the frozen cell pellet was cut off into 6 mL scintillation vials (Perkin–Elmer, Schwerzenbach, Switzerland) filled with 500 μL of lysis buffer (5 mM EDTA, 0.05 M TRIS-HCl, 50 mM NaCl and 1% NP-40 in water). Directly after the vials were shaken for 1 h at 700 rpm and then each vial was filled with 3 mL of scintillation fluid (Ultimagold, Perkin–Elmer, Schwerzenbach, Switzerland). The uptake of the monoamines was measured using a liquid scintillation counter (Packard Tri-Carb Liquid Scintillation Counter 1900 TR).
(§5) The data were analysed using Prism software (version 8, GraphPad, San Diego, CA, USA) and was fitted by a nonlinear regression to variable-slope sigmoidal dose-response curve. The IC50 values were extracted in order to determine each drug’s inhibition potency at the various monoamine transporters.

[4] = molecular target: T3, human serotonin (hSERT) uptake transporter (Homo sapiens, UniProt P31645); assay: Monoamine uptake inhibition, serotonin uptake in transfected HEK293 cells; assay type: cell-based
T3 construct: expressed in transfected cells; host or cells: HEK293
Description: as §2, §3, §4, §5

[5] = molecular target: T4, h5-HT2C receptor (Homo sapiens, UniProt P28335); assay: Radioligand binding, [3H]-mesulgerine
T4 construct: expressed in transfected cells; host or cells: HEK293 cell preparations
T4 sequence (P28335 33-458): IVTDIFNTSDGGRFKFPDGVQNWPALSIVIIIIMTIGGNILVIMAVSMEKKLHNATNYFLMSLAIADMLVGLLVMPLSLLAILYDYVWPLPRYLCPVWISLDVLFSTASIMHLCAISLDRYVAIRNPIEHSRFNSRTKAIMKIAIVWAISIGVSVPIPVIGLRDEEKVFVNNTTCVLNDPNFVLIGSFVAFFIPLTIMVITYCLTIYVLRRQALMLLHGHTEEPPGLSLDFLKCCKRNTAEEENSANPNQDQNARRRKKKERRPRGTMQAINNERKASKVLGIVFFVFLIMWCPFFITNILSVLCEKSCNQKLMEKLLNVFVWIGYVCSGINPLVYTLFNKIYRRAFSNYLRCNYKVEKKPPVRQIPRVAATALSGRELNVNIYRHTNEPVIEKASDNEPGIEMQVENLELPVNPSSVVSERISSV
Description: as §1

T2 sequence (Q01959 whole entry): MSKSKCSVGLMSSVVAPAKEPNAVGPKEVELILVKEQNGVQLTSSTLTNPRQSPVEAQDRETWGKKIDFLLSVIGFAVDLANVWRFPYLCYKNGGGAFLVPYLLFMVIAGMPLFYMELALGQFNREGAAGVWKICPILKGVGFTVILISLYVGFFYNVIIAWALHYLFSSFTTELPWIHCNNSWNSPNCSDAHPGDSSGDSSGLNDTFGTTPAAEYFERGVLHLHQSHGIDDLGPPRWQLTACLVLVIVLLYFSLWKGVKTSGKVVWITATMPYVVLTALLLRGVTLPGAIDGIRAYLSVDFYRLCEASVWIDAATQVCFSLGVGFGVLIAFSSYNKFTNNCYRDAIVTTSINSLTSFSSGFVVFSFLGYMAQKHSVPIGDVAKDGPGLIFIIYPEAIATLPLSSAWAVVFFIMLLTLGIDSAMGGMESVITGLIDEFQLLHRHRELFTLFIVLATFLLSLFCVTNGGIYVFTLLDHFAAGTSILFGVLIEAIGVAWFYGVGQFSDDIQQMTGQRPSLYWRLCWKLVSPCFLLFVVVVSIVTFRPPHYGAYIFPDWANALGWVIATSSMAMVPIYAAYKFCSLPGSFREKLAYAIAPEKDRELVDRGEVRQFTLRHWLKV
T1 sequence (P28223 whole entry): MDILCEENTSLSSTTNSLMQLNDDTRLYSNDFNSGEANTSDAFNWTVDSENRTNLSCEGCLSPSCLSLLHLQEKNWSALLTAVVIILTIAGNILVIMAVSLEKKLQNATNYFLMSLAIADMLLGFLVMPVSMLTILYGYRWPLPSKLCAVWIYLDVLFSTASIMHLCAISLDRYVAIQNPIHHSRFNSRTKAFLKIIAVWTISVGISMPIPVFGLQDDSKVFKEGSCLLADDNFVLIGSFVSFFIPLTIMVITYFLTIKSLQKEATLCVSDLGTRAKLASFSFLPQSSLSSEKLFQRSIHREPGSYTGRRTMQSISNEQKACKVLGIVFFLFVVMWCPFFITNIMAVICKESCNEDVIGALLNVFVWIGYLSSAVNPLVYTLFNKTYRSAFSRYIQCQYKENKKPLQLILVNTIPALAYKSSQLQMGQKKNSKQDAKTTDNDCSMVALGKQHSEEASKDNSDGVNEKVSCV
T3 sequence (P31645 whole entry): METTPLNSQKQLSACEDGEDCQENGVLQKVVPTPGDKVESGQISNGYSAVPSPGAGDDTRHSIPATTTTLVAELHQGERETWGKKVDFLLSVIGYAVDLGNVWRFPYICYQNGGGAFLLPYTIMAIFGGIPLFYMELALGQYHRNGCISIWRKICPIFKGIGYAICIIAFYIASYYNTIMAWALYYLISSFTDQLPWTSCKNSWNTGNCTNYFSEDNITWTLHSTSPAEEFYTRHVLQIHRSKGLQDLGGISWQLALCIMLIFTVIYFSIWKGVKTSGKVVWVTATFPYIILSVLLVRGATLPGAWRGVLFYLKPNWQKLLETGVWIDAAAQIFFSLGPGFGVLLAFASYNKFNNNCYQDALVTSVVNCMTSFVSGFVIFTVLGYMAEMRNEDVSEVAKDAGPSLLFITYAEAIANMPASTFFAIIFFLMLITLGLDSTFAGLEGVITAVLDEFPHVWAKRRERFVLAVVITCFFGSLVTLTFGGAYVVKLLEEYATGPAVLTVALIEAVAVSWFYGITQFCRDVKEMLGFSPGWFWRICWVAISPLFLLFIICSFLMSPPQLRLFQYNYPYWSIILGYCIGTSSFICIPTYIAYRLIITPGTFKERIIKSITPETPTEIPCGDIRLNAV

| Compound | EC50 [1] | Ki [2] | IC50 [3] | IC50 [4] | Ki [5] | DAT/SERT Ratio (95% CI) [3] | DAT/SERT Ratio (95% CI) ([3]; listed as pyrovalerone) | DAT/SERT Ratio (95% CI) ([3]; (1/DAT IC50):(1/SERT IC50)) | fold lower potency at the DAT ([3]; compared to pyrovalerone and MPHP) | fold higher potency at the DAT ([3]; compared to α-PPP) | fold lower inhibition potency at the DAT ([3]; compared to α-PPP) |
| --- | --- | --- | --- | --- | --- | --- | --- | --- | --- | --- | --- |
| CCCC(C(=O)c1ccc2c(c1)OCO2)N1CCCC1 (centres unmarked) [MDPV, 3,4-methylenedioxypyrovalerone] | > 20 µM | > 13 µM | 0.03 µM | 8.4 µM | > 15 µM | – | – | – | – | – | – |
| CCC(C(=O)c1ccc(F)cc1)N1CCCC1 (stereo not drawn) [4F-PBP, 4-fluoro-α-pyrrolidinobutiophenone] | > 20 µM | > 13 µM | 0.5 µM | 177 µM | > 15 µM | – | – | – | – | – | – |
| CCCC(C(=O)c1ccc(C)cc1)N1CCCC1 (centres unmarked) [Pyrovalerone, pyrovalerone] | > 20 µM | > 13 µM | 0.05 µM | 13 µM | > 15 µM | 256 (125–450) | > 72 | – | – | – | – |
| CC(C(=O)c1ccccc1)N1CCCC1 (stereo not drawn) [α-PPP, α-pyrrolidinopropiophenone] | > 20 µM | 1.1 ± 0.3 µM | 0.56 µM | > 1000 µM | > 15 µM | – | – | >1000 | – | – | – |
| Cc1ccc(C(=O)C(C)N2CCCC2)cc1 (stereo not drawn) [4-MePPP, 4-methyl-α-pyrrolidinopropiophenone] | > 10 µM | 1.3 ± 0.4 µM | 0.75 µM | 55 µM | > 5.1 µM | – | – | – | 15 fold | – | – |
| CCCCC(C(=O)c1ccc(C)cc1)N1CCCC1 (stereo not drawn) [MPHP, 4-methyl-α-pyrrolidinohexanophenone] | > 20 µM | 7.3 ± 1.2 µM | 0.06 µM | 11 µM | > 15 µM | – | – | – | – | – | – |
| CC(C(=O)c1ccc2c(c1)OCO2)N1CCCC1 (stereo not drawn) [MDPPP, 3,4-methylenedioxy-α-pyrrolidinopropiophenone] | > 20 µM | 8 ± 1.2 µM | 0.54 µM | 43 µM | > 15 µM | – | – | – | – | – | – |
| CCCCC(C(=O)c1ccccc1)N1CCCC1 (stereo not drawn) [α-PHP, α-pyrrolidinohexanophenone] | > 20 µM | > 13 µM | 0.06 µM | 245 µM | > 15 µM | – | – | >1000 | – | 9 fold | – |
| CCCCC(C(=O)c1ccc2c(c1)OCO2)N1CCCC1 (stereo not drawn) [MDPHP, 3,4-methylenedioxy-α-pyrrolidinohexanophenone] | > 20 µM | > 13 µM | 0.05 µM | 9 µM | > 15 µM | – | – | – | – | – | – |
| CCC(C(=O)c1ccc2c(c1)OCO2)N1CCCC1 (stereo not drawn) [MDPBP, 3,4-methylenedioxy-α-pyrrolidinobutiophenone] | > 20 µM | > 13 µM | 0.07 µM | 11 µM | > 15 µM | – | – | – | – | – | – |
| COc1ccc(C(=O)C(C)N2CCCC2)cc1 (stereo not drawn) [MOPPP, 4-methoxy-α-pyrrolidinopropiophenone] | > 20 µM | > 13 µM | 4.6 µM | 94 µM | > 15 µM | – | – | 20 (4.0–40) | – | – | 8 fold |
| CNC(C)Cc1ccc2c(c1)OCO2 (centres unmarked) [MDMA, 3,4-methylenedioxymethamphetamine, reference compound] | – | – | 13 µM | 1.6 µM | – | – | – | – | – | – | – |
| CCCC(C(=O)c1ccccc1)N1CCCC1 (stereo not drawn) [α-PVP, α-pyrrolidinopentiophenone] | > 20 µM | > 13 µM | 0.03 µM | 279 µM | > 15 µM | – | – | >1000 | – | 17 fold | – |
| CCCCC(NCC)C(=O)c1ccccc1 (centres unmarked) [NEH, N-ethylamine-hexanophenone] | > 20 µM | > 13 µM | 0.18 µM | 47 µM | > 15 µM | – | – | – | – | – | – |
